The numbers were not newly measured in patent US20080206335A1, “[…] CONTROLLED RELEASE SELECTIVE SEROTONIN […] INHIBITOR FORMULATIONS” (priority 1999, published 2008), which cites them from elsewhere.

The conditions of this series: steady state after multiple oral doses of 100 mg/day, healthy young volunteers.

On to `COCCCC/C(=N\OCCN)c1ccc(C(F)(F)F)cc1.O=C(O)/C=C\C(=O)O` [fluvoxamine, 5-methoxy-4′-(trifluoromethyl)valerophenone-(E)-O-(2-aminoethyl) oxime maleate (1:1)], for which the plasma elimination half-life was 15.6 h.
